The subject of assay [1] is Bacillus subtilis. The experiment in a line: Antimicrobial activity against Bacillus subtilis ATCC 6051. Format: functional.
In assay [2] the test system is Pseudomonas aeruginosa. Put plainly: Antimicrobial activity against Pseudomonas aeruginosa PAO1. It is filed as functional.
The subject of assay [3] is Staphylococcus aureus. The experiment in a line: Antimicrobial activity against methicillin-resistant Staphylococcus aureus. Format: functional.
Assay [4] relates to HepG2. The experiment in a line: Cytotoxicity against human HepG2 cells after 48 hrs by MTT assay. Conditions: HepG2, 48 h. Format: functional, cell-based. (Tetrazolium assays rely on reduction of a dye to a coloured formazan, in cell work by metabolically active cells.)
In assay [5] the test system is Staphylococcus aureus. Put plainly: Antimicrobial activity against Staphylococcus aureus ATCC 6538. It is filed as functional.
Assay [6] deals with K562. Put plainly: Cytotoxicity against human K562 cells after 48 hrs by MTT assay. Format: functional, cell-based. Conditions: K562, 48 h.
Assay [7] concerns Candida albicans. Put plainly: Antimicrobial activity against Candida albicans SC5314. Format: functional.
The subject of assay [8] is K562. Put plainly: Induction of apoptosis in human K562 cells assessed as cell survival at 1 ug/ml after 4 hrs using annexin-V-FITC and propidium iodide staining by flow cytometry (reference value: 97.89%). Format: functional. The conditions noted are these: K562, 4 h, read-out: Activity. On the technique in general: A flow cytometer gives signals particle by particle.

Assay [9] relates to K562. The experiment in a line: Induction of apoptosis in human K562 cells assessed as viable cells at 2 ug/ml after 5 hrs using annexin-V-FITC and propidium iodide staining by flow cytometry (reference value: 99.86%). The conditions noted are these: K562, 5 h, read-out: Activity. It is filed as functional.
Assay [10] relates to K562. The experiment in a line: Induction of apoptosis in human K562 cells assessed as viable cells after 3 hrs using annexin-V-FITC and propidium iodide staining by flow cytometry (reference value: 93.69%). Format: functional, cell-based.
The test system of assay [11] is K562. Put plainly: Induction of apoptosis in human K562 cells assessed as viable cells at 2 ug/ml after 3 hrs using annexin-V-FITC and propidium iodide staining by flow cytometry (reference value: 93.69%). It is filed as functional. The conditions noted are these: K562, 3 h, read-out: Activity.
The subject of assay [12] is K562. The experiment in a line: Induction of apoptosis in human K562 cells assessed as cell survival at 1 ug/ml after 1 hr using annexin-V-FITC and propidium iodide staining by flow cytometry (reference value: 97.89%). It is filed as functional. Conditions: K562, 1 h, read-out: Activity.
In assay [13] the test system is K562. Put plainly: Induction of apoptosis in human K562 cells assessed as cell survival at 4 ug/ml after 5 hrs using annexin-V-FITC and propidium iodide staining by flow cytometry (reference value: 97.96%). It is filed as functional. Conditions: K562, 5 h, read-out: Activity.
Assay [14] deals with K562. Put plainly: Induction of apoptosis in human K562 cells assessed as […] of Bcl-2 at 2 ug/ml after 4 hrs by Western blot analysis. It is filed as functional, cell-based. For orientation: A western blot detects proteins with antibodies after separation by electrophoresis.
Assay [15] relates to K562. The experiment in a line: Induction of apoptosis in human K562 cells assessed as viable cells at 1 ug/ml after 5 hrs using annexin-V-FITC and propidium iodide staining by flow cytometry (reference value: 99.86%). It is filed as functional. Conditions: K562, 5 h, read-out: Activity.
The subject of assay [16] is K562. The experiment in a line: Induction of apoptosis in human K562 cells assessed as cell survival at 1 ug/ml after 8 hrs using annexin-V-FITC and propidium iodide staining by flow cytometry (reference value: 97.89%). It is filed as functional. Conditions: K562, 8 h, read-out: Activity.
Assay [17] relates to K562. The experiment in a line: Induction of apoptosis in human K562 cells assessed as viable cells at 2 ug/ml using annexin-V-FITC and propidium iodide staining by flow cytometry (reference value: 93.69%). Format: functional, cell-based. The conditions noted are these: TDE = time-dependent effect.
For assay [18], the system named is K562. The experiment in a line: Induction of apoptosis in human K562 cells assessed as effect on Bcl-XL expression at 2 ug/ml after 4 hrs by Western blot analysis. It is filed as functional, cell-based.
Assay [19] has as its system K562. The experiment in a line: Induction of apoptosis in human K562 cells assessed as cell survival at 1 ug/ml after 6 hrs using annexin-V-FITC and propidium iodide staining by flow cytometry (reference value: 97.89%). Format: functional. Conditions: K562, 6 h, read-out: Activity.
Assay [20] concerns K562. Put plainly: Induction of apoptosis in human K562 cells assessed as cell survival at 1 ug/ml after 2 hrs using annexin-V-FITC and propidium iodide staining by flow cytometry (reference value: 97.89%). It is filed as functional. Conditions: K562, 2 h, read-out: Activity.
Assay [21] relates to K562. The experiment in a line: Induction of apoptosis in human K562 cells assessed as cell survival at 2 ug/ml after 5 hrs using annexin-V-FITC and propidium iodide staining by flow cytometry (reference value: 97.96%). It is filed as functional. The conditions noted are these: K562, 5 h, read-out: Activity.
In assay [22] the test system is K562. The experiment in a line: Induction of apoptosis in human K562 cells assessed as cell survival at 1 ug/ml after 5 hrs using annexin-V-FITC and propidium iodide staining by flow cytometry (reference value: 97.96%). It is filed as functional. The conditions noted are these: K562, 5 h, read-out: Activity.
The subject of assay [23] is K562. Put plainly: Induction of apoptosis in human K562 cells assessed as cell survival at 0.5 ug/ml after 5 hrs using annexin-V-FITC and propidium iodide staining by flow cytometry (reference value: 97.96%). It is filed as functional. Conditions: K562, 5 h, read-out: Activity.
Assay [24] relates to K562. The experiment in a line: Induction of apoptosis in human K562 cells assessed as cell survival at 0.25 ug/ml after 5 hrs using annexin-V-FITC and propidium iodide staining by flow cytometry (reference value: 97.96%). The conditions noted are these: K562, 5 h, read-out: Activity. Format: functional.
Assay [25] has as its system K562. The experiment in a line: Induction of apoptosis in human K562 cells assessed as viable cells at 4 ug/ml after 5 hrs using annexin-V-FITC and propidium iodide staining by flow cytometry (reference value: 99.86%). Format: functional. Conditions: K562, 5 h, read-out: Activity.
Assay [26] has as its system K562. Put plainly: Induction of apoptosis in human K562 cells assessed as down regulation of c-Myc at 2 ug/ml after 3 hrs by Western blot analysis. It is filed as functional, cell-based.
The test system of assay [27] is K562. The experiment in a line: Induction of apoptosis in human K562 cells assessed as viable cells at 0.75 ug/ml after 5 hrs using annexin-V-FITC and propidium iodide staining by flow cytometry (reference value: 99.86%). Format: functional. Conditions: K562, 5 h, read-out: Activity.
The subject of assay [28] is K562. The experiment in a line: Induction of apoptosis in human K562 cells assessed as viable cells at 0.5 ug/ml after 5 hrs using annexin-V-FITC and propidium iodide staining by flow cytometry (reference value: 99.86%). It is filed as functional. The conditions noted are these: K562, 5 h, read-out: Activity.
In assay [29] the test system is K562. The experiment in a line: Induction of apoptosis in human K562 cells assessed as cell survival at 0.75 ug/ml after 5 hrs using annexin-V-FITC and propidium iodide staining by flow cytometry (reference value: 97.96%). It is filed as functional. The conditions noted are these: K562, 5 h, read-out: Activity.

Converted amounts (≈) assume the structure as drawn. The source made the active and inactive calls. The rule behind the calls is not given here.

By MIC is commonly meant the lowest concentration that inhibits growth of the organism. `CN[C@H](CC(C)C)C(=O)N[C@H]1C(=O)N[C@@H](CC(N)=O)C(=O)N[C@H]2C(=O)N[C@H]3C(=O)N[C@H](C(=O)N[C@H](C(=O)O)c4cc(O)cc(O)c4-c4cc3ccc4O)[C@H](O)c3ccc(c(Cl)c3)Oc3cc2cc(c3O[C@@H]2O[C@H](CO)[C@@H](O)[C@H](O)[C@H]2O[C@H]2C[C@](C)(N)[C@H](O)[C@H](C)O2)Oc2ccc(cc2Cl)[C@H]1O` [VANCOMYCIN] showed a minimum inhibitory concentration (MIC) in assay [1] of 0.5 µg/mL (≈ 0.345 µM).
The term IC50 denotes the concentration that gives 50% inhibition. The low end stands for higher potency, the high end for lower potency. `CC(C)=C[C@H]1C[C@H](C)[C@]2(CC[C@]3(C)C[C@@H]4C(C)=CC(=O)[C@@H]4/C(C=O)=C\C[C@H]32)O1`: the minimal inhibitory concentration (MIC) in [2], in assay [3], in assay [5], in assay [1] and in [7] was > 100 µg/mL each time. For the same compound, the half-maximal inhibitory concentration (IC50) in [4] is 55.7 µM; in assay [6], 39.5 µM.
For `CC(C)=C[C@H]1C[C@H](C)[C@]2(CC[C@]3(C)C[C@@H]4C(C)=CC(=O)[C@H]4/C(C=O)=C\C[C@H]32)O1` [3-ANHYDRO-6-EPI-OPHIOBOLIN A], the MIC in assay [2], in assay [3], in [5], in [1] and in assay [7] was > 100 µg/mL each time. Besides, the IC50 is 47.1 µM in [4] and 35.6 µM in [6].
For the compound `CC(C)=C[C@H]1C[C@H](C)[C@]2(CC[C@]3(C)C[C@@H]4C(C)=CC(=O)[C@]4(O)/C(C=O)=C\C[C@H]32)O1`, the viability at 1 µg/mL came out at 56% in assay [8]; 91.3% in assay [12]; 49.6% in assay [15]; 5.86% in [16]; 27.5% in [19]; 69.7% in assay [20]. Further, the viability at 1 µg/mL in assay [22] was found to be 50.2%. In addition, the viability at 2 µg/mL was determined as 25.9% in [9], 32.6% in [11] and 26.9% in assay [21]. The Activity entry in [10] is “Dose-dependent effect”; in assay [17] it was “tde”. Moreover, the MIC was > 100 µg/mL in assay [2]; 12.5 µg/mL (≈ 31.4 µM) in assay [3]; 12.5 µg/mL (≈ 31.4 µM) in [5]; 12.5 µg/mL (≈ 31.4 µM) in assay [1]; 50 µg/mL (≈ 125 µM) in [7]. The viability at 4 µg/mL is 2.45% in assay [13] and 1.78% in [25]. Also, the result in assay [14] and in assay [26] was Active. Also, in assay [18], the result was inactive. Further, the figures for the half-maximal inhibitory concentration (IC50) in [4] and in [6] were 6.49 µM and 4.06 µM, respectively. Besides, the figures for the viability at 0.5 µg/mL in assay [23] and in assay [28] were 88.3% and 87.5%, respectively. The viability at 0.25 µg/mL in [24] was determined as 96.6%. The figures for the viability at 0.75 µg/mL in assay [27] and in assay [29] were 62.8% and 61.5%, respectively.
In [7], `CC(=O)N1CCN(c2ccc(OCC3COC(Cn4ccnc4)(c4ccc(Cl)cc4Cl)O3)cc2)CC1` (configuration not stated) [KETOCONAZOLE] gave a minimum inhibitory concentration (MIC) of 0.02 µg/mL (≈ 0.0376 µM).
Take `COc1cc([C@@H]2c3cc4c(cc3[C@@H](O[C@@H]3O[C@@H]5CO[C@@H](C)O[C@H]5[C@H](O)[C@H]3O)[C@H]3COC(=O)[C@H]23)OCO4)cc(OC)c1O` [ETOPOSIDE]: the half-maximal inhibitory concentration (IC50) in [4] was determined as 6.41 µM.
In assay [2], `O=C(O)c1cn(C2CC2)c2cc(N3CCNCC3)c(F)cc2c1=O` [CIPROFLOXACIN] returned a minimal inhibitory concentration (MIC) of 1 µg/mL (≈ 3.02 µM).

Values taken from ChEMBL document CHEMBL2390897, “3-Anhydro-6-hydroxy-ophiobolin A, a new sesterterpene inhibiting the growth of methicillin-resistant Staphylococcus aureus and inducing the cell death by apoptosis on K562, from the phytopathogenic fungus Bipolaris oryzae” (Bioorg Med Chem Lett, 2013).
